# According to ChEMBL document CHEMBL1129923, “Antiallergic activity of some novel oligopeptides related to immunoglobulin E” (1997):
# Square brackets hold non-standard residues; d marks the D form. Peptide text beside a SMILES is read from it. NMeA = CN[C@@H](C)C(=O)O
# Key:
# Type in all cases: functional
# [1] = test system: Rattus norvegicus; assay: Tested for antiallergic activity by studying the protection of PCA (passive cutaneous anaphylaxis) after ip administration at a dose of 1 mg/kg in rats for four determinations; settings: route intraperitoneal
# [2] = test system: Rattus norvegicus; assay: Tested for antiallergic activity by studying mast cell stabilising activity after ip administration at a dose of 0.25 mg/kg in rats for four determinations; settings: route intraperitoneal
# [3] = test system: Rattus norvegicus; assay: Tested for antiallergic activity by studying the protection of PCA (passive cutaneous anaphylaxis) after ip administration at a dose of 10.0 mg/kg in rats for four determinations; settings: route intraperitoneal
# [4] = test system: Rattus norvegicus; assay: Tested for antiallergic activity by studying the protection of PCA (passive cutaneous anaphylaxis) after ip administration at a dose of 0.5 mg/kg in rats for four determinations; settings: route intraperitoneal
# [5] = test system: Rattus norvegicus; assay: Tested for antiallergic activity by studying the protection of PCA (passive cutaneous anaphylaxis) after ip administration at a dose of 2.5 mg/kg in rats for four determinations; settings: route intraperitoneal
# [6] = test system: Rattus norvegicus; assay: Tested for antiallergic activity by studying the protection of PCA (passive cutaneous anaphylaxis) after ip administration at a dose of 1.0 mg/kg in rats for four determinations; settings: route intraperitoneal
# [7] = test system: Rattus norvegicus; assay: Tested for antiallergic activity by studying mast cell stabilising activity after ip administration at a dose of 0.5 mg/kg for five days in rats for four determinations; settings: route intraperitoneal
# [8] = test system: Rattus norvegicus; assay: Effective dose required for inhibition of PCA at a compound concentration of 7.5 mg/kg po
# [9] = test system: Rattus norvegicus; assay: Tested for antiallergic activity by studying the protection of PCA (passive cutaneous anaphylaxis) after ip administration at a dose of 5.0 mg/kg in rats for four determinations; settings: route intraperitoneal
# [10] = test system: Rattus norvegicus; assay: Effective dose required for protection of mast cells using mast cell stabilising assay at a compound concentration of 7.5 mg/kg po
# [11] = test system: Rattus norvegicus; assay: Tested for antiallergic activity by studying mast cell stabilising activity after ip administration at a dose of 2.5 mg/kg for five days in rats for four determinations; settings: route intraperitoneal
# [12] = test system: Rattus norvegicus; assay: Tested for antiallergic activity by studying mast cell stabilising activity after ip administration at a dose of 1.0 mg/kg for five days in rats for four determinations; settings: route intraperitoneal
# [13] = test system: Rattus norvegicus; assay: Tested for antiallergic activity by studying mast cell stabilising activity after ip administration at a dose of 0.2 mg/kg for five days in rats for four determinations; settings: route intraperitoneal
# [14] = test system: Rattus norvegicus; assay: Tested for antiallergic activity by studying the protection of PCA (passive cutaneous anaphylaxis) after ip administration at a dose of 7.5 mg/kg in rats for four determinations; settings: route intraperitoneal
# [15] = test system: Rattus norvegicus; assay: Tested for antiallergic activity by studying mast cell stabilising activity after ip administration at a dose of 0.1 mg/kg for five days in rats for four determinations; settings: route intraperitoneal
# [16] = test system: Rattus norvegicus; assay: Tested for antiallergic activity by studying the protection of PCA (passive cutaneous anaphylaxis) after ip administration at a dose of 50 mg/kg in rats for four determinations; settings: route intraperitoneal
# [17] = test system: Rattus norvegicus; assay: Tested for antiallergic activity by studying mast cell stabilising activity after ip administration at a dose of 50 mg/kg in rats for four determinations; settings: route intraperitoneal
compound,measurement,setting,value
H-ADSDGK-NH2,Protection,[1],68%
same,Protection,[2],61%
H-AESDGK-OH,Protection,[1],45%
same,Protection,[2],63%
H-AGSDGK-OH,Protection,[3],90%
same,Protection,[4],47%
same,Protection,[5],69%
same,Protection,[6],57%
same,Protection,[7],70%
same,ED50,[8],0.6 mg/kg
same,Protection,[9],77%
same,ED50,[10],1 mg/kg
same,Protection,[11],87%
same,Protection,[12],80%
same,Protection,[13],50%
same,Protection,[1],78%
same,Protection,[14],88%
same,Protection,[2],78%
same,Protection,[15],39%
CN[C@@H](C)C(=O)N[C@@H](CC(=O)O)C(=O)N[C@@H](CO)C(=O)N[C@@H](CC(=O)O)C(=O)NCC(=O)N[C@@H](CCCCN)C(=O)O (H-[NMeA]DSDGK-OH),Protection,[1],67%
same,Protection,[2],60%
O=C([O-])c1cc(=O)c2c(OCC(O)COc3cccc4oc(C(=O)[O-])cc(=O)c34)cccc2o1.[Na+].[Na+] [CROMOLYN SODIUM],Protection,[16],77%
same,Protection,[17],84%
C[C@H](N)C(=O)N[C@@H](CC(=O)O)C(=O)N[C@@H](CO)C(=O)N[C@@H](CC(=O)O)C(=O)NCC(=O)N[C@@H](CCCCN)C(=O)O,Protection,[3],89%
same,Protection,[4],44%
same,Protection,[5],67%
same,Protection,[6],52%
same,Protection,[7],47%
same,ED50,[8],0.9 mg/kg
same,Protection,[9],75%
same,ED50,[10],3 mg/kg
same,Protection,[11],79%
same,Protection,[12],72%
same,Protection,[13],41%
same,Protection,[1],75%
same,Protection,[14],86%
same,Protection,[2],64%
same,Protection,[15],34%
C[C@@H](N)C(=O)N[C@@H](CC(=O)O)C(=O)N[C@@H](CO)C(=O)N[C@@H](CC(=O)O)C(=O)NCC(=O)N[C@@H](CCCCN)C(=O)O,Protection,[1],64%
same,Protection,[2],61%
